Results: US20220008500A1, “COMPOSITIONS AND METHODS FOR TREATING HEART FAILURE” (The George Washington University, priority 2017, published 2022)
Where “and” joins values, the source holds several entries; their conditions need not be identical. Equal entries are not always repeated.

Assays:
[1] = tested on: excised Langendorff perfused hearts; experiment: Isoproterenol dose response in excised Langendorff perfused hearts (β-adrenergic stimulation); design: species or system Sprague-Dawley rats; details: for Contractility at the highest isoproterenol concentration / RPP at the highest isoproterenol concentration / Relaxation at the highest isoproterenol concentration / CFR at the highest isoproterenol concentration: isoproterenol 1000 nM
Method: (§1) At nine weeks of age rats were anesthetized with an IP injection of 0.2 mL Telazol and subject to isoflurane inhalation. Following cessation of pain reflexes, hearts were rapidly excised (n=26) and Langendorff perfused via the aorta at constant pressure (65 mmHg) and temperature (37° C.) with a Krebs-Henseleit solution containing (in mM) 115 NaCl, 3.3 KCl, 2.0 CaCl2, 1.4 MgSO4, 25.0 NaHCO3, 1.0 KH2PO4, 5.0 glucose, and 1.0 lactate. Perfusate was oxygenated with 95% 02-5% CO2. After a stabilization period of 10 minutes, a size 5 balloon (Harvard Apparatus) was inserted into the LV to measure isovolumic LV developed pressure (LVDP). Diastolic pressure was set to 10 mmHg and LVDP was computed as the difference between systolic and diastolic pressures. HR, LVDP, and coronary flow rate (CFR) were measured for at least 15 minutes during sinus rhythm. An isoproterenol (16504, Sigma Aldrich) dose response protocol was then administered using concentrations of 0.01, 0.1, 1, 10, 100, 1000 nM, and HR, LVDP, and CFR were measured at each concentration once function stabilized. After each study, rate pressure product (RPP), an indirect measure of LV work, was calculated as the product of HR and LVDP. Contractility and relaxation were measured as the maximum and minimum values of the first derivative of the LVP waveform, respectively, to assess inotropy and lusitropy.
Measurements in each group were compared using analysis of variance with Tukey post-hoc comparisons (Minitab 17 Statistical Software) to identify significant differences between groups. Myocyte area measurements were analyzed using fully nested ANOVA to account for both number of cells and number of animals. The isoproterenol dose response data was analyzed using a general linear model (GLM) to evaluate the group effect and the isoproterenol dose effect. Tukey post-hoc tests identified pairwise changes between groups at each isoproterenol concentration. Differences were considered significant if p<0.05.

[2] = tested on: myocardial ischemia-reperfusion; details: intra-cerebroventricular administration, rats with daily restraint stress; cited from earlier work
collagen III = experiment: Western blot of LV myocardium, collagen III; format: in vivo, Sprague-Dawley rats; details: CNO 1 mg/kg IP daily
Method: (§2) TAC+OXT and OXT NORM animals received intraperitoneal (IP) injections of CNO (1 mg/kg) daily, beginning at 5 weeks of age until the animal was sacrificed.
(§3) Samples of LV myocardium (n=5-6/group) were flash frozen in liquid nitrogen and stored at −80° C. For western blot analysis of protein expression, samples were thawed and homogenized using the Qproteome Mammalian Protein Prep Kit (Qiagen) in tubes containing metallic beads. Samples were then centrifuged at 14,000 g for 20 minutes and protein concentrations were determined by the Pierce BCA Protein Assay (Thermo Scientific). Laemmli buffer (Bio Rad) with 10% 2-mercaptoethanol (Sigma-Aldrich) was added to the samples and samples were heated to 98° C. Equal protein concentration was loaded into wells containing 4-20% Mini-PROTEAN® TGX™ Gels (Bio Rad). The samples were then run at 100V for 1-1.5 hours to separate proteins by electrophoresis.
(§4) After electrophoresis, the samples were transferred to PVDF membranes for 10 min at 25V using the Trans-Blot® Turbo™ Transfer System (Bio Rad). The membranes were blocked with 5% milk for 18 hours. […] Band intensities for collagen III and IL-10 were measured using ImageJ and normalized to the corresponding band intensity for GAPDH.

PVN OXT neurons = experiment: Firing of PVN OXT neurons after CNO injection; format: in vivo; details: DREADDs expressed in PVN OXT neurons
Description: (§5) Additionally, selective activation of DREADDs in PVN OXT neurons decreases both mean arterial pressure and HR in telemetry instrumented conscious unrestrained animals. […] In this system one viral vector expresses Cre recombinase under an OXT promotor. The second vector expresses the excitatory hM3Dq DREADDs22. This is a Cre-dependent vector that has silencing double-floxed inverse open reading frames, which insures expression is only in OXT neurons that selectively express Cre. In each animal, 30-50 nl containing both viral vectors was selectively microinjected into the PVN over a 20 minutes period at 1 week of age.

[3] = target: T1, DREADDs in PVN OXT neurons (Homo sapiens, UniProt P20309, A239G/Y149C)
T1 sequence (P20309 whole entry Y149C/A239G): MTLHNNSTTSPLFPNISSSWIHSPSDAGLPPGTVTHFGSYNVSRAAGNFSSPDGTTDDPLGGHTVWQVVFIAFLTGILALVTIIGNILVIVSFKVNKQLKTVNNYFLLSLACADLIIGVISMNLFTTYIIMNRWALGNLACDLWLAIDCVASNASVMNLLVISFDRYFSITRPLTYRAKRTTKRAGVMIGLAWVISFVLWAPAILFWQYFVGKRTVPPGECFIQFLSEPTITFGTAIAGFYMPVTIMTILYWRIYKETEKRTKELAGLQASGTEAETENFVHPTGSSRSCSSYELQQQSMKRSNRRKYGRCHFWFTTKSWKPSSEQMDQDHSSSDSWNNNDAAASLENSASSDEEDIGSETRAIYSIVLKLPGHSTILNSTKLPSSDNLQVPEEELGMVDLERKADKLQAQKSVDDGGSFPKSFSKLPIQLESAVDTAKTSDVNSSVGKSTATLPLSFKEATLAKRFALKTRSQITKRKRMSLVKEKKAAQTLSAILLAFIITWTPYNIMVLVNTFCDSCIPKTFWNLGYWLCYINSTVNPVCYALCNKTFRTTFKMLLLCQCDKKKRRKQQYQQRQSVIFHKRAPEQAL
Method: In this system one viral vector expresses Cre recombinase under an OXT promotor. The second vector expresses the excitatory hM3Dq DREADDs22. This is a Cre-dependent vector that has silencing double-floxed inverse open reading frames, which insures expression is only in OXT neurons that selectively express Cre. In each animal, 30-50 nl containing both viral vectors was selectively microinjected into the PVN over a 20 minutes period at 1 week of age.
Sprague-Dawley rats at 4 weeks of age that had DREADDS expression in PVN oxytocin neurons were anesthetized (isoflurane) and implanted with a telemetry device (HDX-11, DSI) with the pressure catheter inserted into the descending abdominal aorta to measure blood pressure (BP). The ECG leads of the device were inserted subcutaneously to measure HR. Rats were allowed to recover from this surgery for a week, followed by IP saline injections for 3 days to acclimate the animals to IP injections. […] One injection of one of the three solutions was administered each day on consecutive days.

IL-1β = experiment: Western blot of LV myocardium, IL-1β; format: in vivo, Sprague-Dawley rats; details: CNO 1 mg/kg IP daily
Method: as §2, §3, §4

[4] = target: T1, DREADDs in PVN OXT neurons; experiment: Ex vivo cardiac function of excised Langendorff perfused hearts during sinus rhythm; design: expressed in transfected cells; host or cells: PVN oxytocin neurons of Sprague-Dawley rats, transduced in vivo with a Cre-dependent (double-floxed inverse ORF) viral vector plus an OXT-promoter Cre vector; species or system Sprague-Dawley rats
Description: (§6) Pressure overload induced LV hypertrophy was initiated in male Sprague-Dawley rats using a minimally invasive trans-ascending aortic constriction (TAC) procedure. Rats at one week of age were aestheticized by hypothermia and underwent TAC surgery. A 0.5 cm incision was made at the level of the chest, the chest was opened and the thymus was retracted to reveal the aorta. A 4-0 silk suture was passed around the ascending aorta, and with a 25-gauge needle temporarily placed adjacent to the aorta, the suture was tied around both the aorta and needle (TAC and TAC+OXT groups). The needle was then removed, leaving the constricting suture around the aorta. Buprenorphine was applied as an analgesic. Successful constriction was confirmed upon examination of the aorta after each animal was sacrificed.
as §5, §2, §1

[5] = target: T1, DREADDs in PVN OXT neurons; experiment: Anatomic measurements and histology of hearts after chronic activation of PVN OXT neurons; format: in vivo, Sprague-Dawley rats; design: expressed in transfected cells; host or cells: PVN oxytocin neurons of Sprague-Dawley rats, transduced in vivo with a Cre-dependent (double-floxed inverse ORF) viral vector plus an OXT-promoter Cre vector
Description: as §6, §5, §2
In a subset of animals, hearts were excised and cannulated via the aorta, flushed of blood, and weighed after clearing fluid from the chambers. The hearts were cut transversely, halfway between the apex and base, and the thickness of the LV free wall and septum were measured. The tissue was then preserved in 10% formalin for histology. Other hearts from each group were cannulated, flushed with high potassium solution, and then formalin-fixed via retrograde perfusion at constant pressure (60 mmHg). The hearts were cut longitudinally and preserved in 10% formalin for histology. All heart specimens were stained (H&E and Trichrome) to quantify cell size and collagen deposition. Average myocyte transverse cross-sectional (CS) area (μm^2) and the amount of fibrosis (μm^2) observed in a histological section were measured using ImageJ for at least three transverse slices from each heart.

[6] = hearts of TAC rats given CNO daily
[7] = acute activation of PVN OXT neurons by CNO, n=4
[8] = awake rats with DREADDs in PVN OXT neurons, CNO 1 mg/kg IP, acute
[9] = hearts of TAC rats given CNO 1 mg/kg IP daily
[10] = hearts of rats without TAC (OXT NORM) given CNO daily
[11] = TAC rats with DREADDs, CNO 1 mg/kg IP daily, 8 weeks post-TAC, listed as TAC + OXT
[12] = TAC rats with DREADDs, CNO 1 mg/kg IP daily, 8 weeks post-TAC, listed as TAC+OXT
[13] = rats without TAC (OXT NORM), CNO 1 mg/kg IP daily

In the case of `CC(C)NCC(O)c1ccc(O)c(O)c1` (stereo not shown) [isoproterenol], the “Contractility at the highest isoproterenol concentration” value ([1]; Control hearts) is reported as 7,164±788 mmHg/s, the “RPP at the highest isoproterenol concentration” value ([1]; Control hearts) is reported as 52,741±14,328 mmHg*bpm and the “Relaxation at the highest isoproterenol concentration” value ([1]; Control hearts) is reported as −5,402±484 mmHg/s. For the same compound, the “CFR at the highest isoproterenol concentration” value ([1]; Control hearts, baseline 13.3±2.4 mL/min) was 25.3 ± 3.7 mL/min, the “CFR, average for all isoproterenol concentrations” value ([1]; untreated TAC hearts) was 8.4 ± 0.8 mL/min and the “Maximum contractility rate in the isoproterenol protocol” value ([1]; untreated TAC hearts) was 2,322±364 mmHg/s. The “Minimum relaxation rate in the isoproterenol protocol” value ([1]; untreated TAC hearts) was −2,023±361 mmHg/s and the “RPP at the highest isoproterenol concentration” value ([1]; untreated TAC hearts) was 21,787±3998 mmHg*bpm.
In the case of `CC[C@H](C)[C@@H]1NC(=O)[C@H](Cc2ccc(O)cc2)NC(=O)[C@@H](N)CSSC[C@@H](C(=O)N2CCC[C@H]2C(=O)N[C@@H](CC(C)C)C(=O)NCC(N)=O)NC(=O)[C@H](CC(N)=O)NC(=O)[C@H](CCC(N)=O)NC1=O` [oxytocin], the “Cardiac injury following ischemia reperfusion” value [2] is listed as “reduced the cardiac injury”.
In the case of `C[N+]1([O-])CCN(C2=Nc3cc(Cl)ccc3Nc3ccccc32)CC1` [CNO, clozapine N-oxide], the “Collagen III expression (band intensity normalized to GAPDH)” value (collagen III; TAC rats with DREADDs) is reported as 1.95±0.7 times Control, the “Collagen III expression (band intensity normalized to GAPDH)” value (collagen III; rats without TAC (OXT NORM)) is reported as 1.31±0.5 change from Control and the “Firing of PVN OXT neurons” value (PVN OXT neurons) is reported as “increases the firing of PVN OXT neurons for at least one hour”. For the same compound, the “HR response to increasing isoproterenol concentration” value ([1]; hearts of TAC rats given CNO daily, compared with Control and TAC hearts) was “greatest increase in HR”, the “CFR at the highest isoproterenol concentration” value [1, 6] was 15 ± 1.9 mL/min and the “Contractility at the highest isoproterenol concentration” value [1, 6] was 3,936±589 mmHg/s. For the same compound, the “RPP at the highest isoproterenol concentration” value [1, 6] was 38,017±4,303 mmHg*bpm, the “Relaxation at the highest isoproterenol concentration” value [1, 6] was −3,258±495 mmHg/s and the “Effect on BP (figure legend)” value [3, 7] was “significantly reduced BP”. The “Effect on HR (figure legend)” value [3, 7] was “significantly reduced HR”, the “Average reduction of HR” value [3, 8] was 56 bpm and the “Average reduction of blood pressure” value [3, 8] was 13 mmHg. The “Blood pressure after CNO” value ([3]; awake rats with DREADDs, CNO 1 mg/kg IP, before: 105.8±1.9 mmHg) was 93.4±1.5 mmHg, the “HR after CNO” value ([3]; awake rats with DREADDs, CNO 1 mg/kg IP, before: 475.4±15.9 bpm) was 419±12.4 bpm and the “IL-1β expression (band intensity normalized to GAPDH)” value (IL-1β; TAC rats with DREADDs) was 0.50±0.2 change from Control. The “IL-1β expression (band intensity normalized to GAPDH)” value (IL-1β; rats without TAC (OXT NORM)) was 0.21±0.14 change from Control, the “LV contractility (maximum of first derivative of LVP)” value [4, 9] was 3,124±383 mmHg/s and the “LV developed pressure (LVDP)” value [4, 9] was 126±14 mmHg. The “LV relaxation (minimum of first derivative of LVP)” value [4, 9] was −2,203±231 mmHg/s, the “Rate pressure product (RPP)” value [4, 9] was 26,874±4,036 mmHg*bpm and the “Coronary flow rate (CFR)” value ([4]; hearts of TAC rats given CNO 1 mg/kg IP daily, baseline (no isoproterenol), listed as TAC+OXT) was 13.8 ± 2.9 mL/min and 14 ± 2.9 mL/min. The “Coronary flow rate (CFR)” value [4, 10] was 16 ± 1.9 mL/min, the “LV contractility (maximum of first derivative of LVP)” value [4, 10] was 4,631±931 mmHg/s and the “LV developed pressure (LVDP)” value [4, 10] was 127±16 mmHg. The “LV relaxation (minimum of first derivative of LVP)” value [4, 10] was −2,926±397 mmHg/s, the “Rate pressure product (RPP)” value [4, 10] was 26,978±2,274 mmHg*bpm and the “Myocyte area (transverse cross-sectional area)” value (shortened to “Myocyte area”) ([5]; TAC rats with DREADDs, CNO 1 mg/kg IP daily from 5 weeks of age, 8 weeks post-TAC, listed as TAC + OXT) was 584 ± 51^+ μm^2. The “Myocyte area” value ([5]; TAC rats with DREADDs, CNO 1 mg/kg IP daily from 5 weeks of age, 8 weeks post-TAC, listed as TAC+OXT) was 601±23 μm^2, the Body weight ([5]; TAC rats with DREADDs, CNO 1 mg/kg IP daily, 8 weeks post-TAC) was 298 ± 17^ g and the Fibrosis [5, 11] was 2407 ± 723^+ μm^2. For the same compound, the Heart weight [5, 11] was 1.75 ± 0.21 g, the “LV wall thickness (LV free wall)” value [5, 11] was 5.53 ± 0.34 mm and the Septum thickness [5, 11] was 3.99 ± 0.14 mm. For the same compound, the Fibrosis [5, 12] was 2407±723 μm^2, the Heart weight [5, 12] was 1.74 ± 0.2 g and the “LV wall thickness (LV free wall)” value [5, 12] was 5.22±0.3 mm. The Septum thickness [5, 12] was 3.9±0.2 mm, the “Myocyte area” value ([5]; rats without TAC (OXT NORM) with DREADDs, CNO 1 mg/kg IP daily) was 368±20 μm^2 and 365 ± 90 μm^2 and the Body weight [5, 13] was 357 ± 24 g. The Fibrosis [5, 13] was 918±112 μm^2, the Heart weight [5, 13] was 2.19 ± 0.2 g and 2.19 ± 0.17 g and the “LV wall thickness (LV free wall)” value [5, 13] was 3.69±0.1 mm and 3.69 ± 0.10 mm. For the same compound, the Septum thickness [5, 13] was 3.18±0.1 mm and 3.18 ± 0.12 mm.
